# Data as given in patent US9855239B2, “Methods for the treatment and prevention of age-related retinal dysfunction” (University of Washington, priority 2008, dated 2018).
# Entries after “also recorded” stand apart in the source; their conditions may differ.
# What was measured:
# [1] = system: Lrat−/− and Rpe65−/− knockout mice; conditions: cited from earlier work
# [2] = system: retina; experiment: Retinal morphology (light and electron microscopy); type: in vivo, mouse; conditions: 10 and 14 months of age
# Description: The thickness of each major layer in the retina was also similar between control and treated groups.
# For light microscopy, mouse eyecups were fixed with 2.5% glutaraldehyde and 1.6% paraformaldehyde in 0.08 M 1,4-piperazinediethanesulfonate buffer (PIPES) (pH 7.4) containing 2% sucrose for ˜1 hr at room temperature followed by 23 hr at 4° C. Eyecups then were washed with 0.13 M sodium phosphate buffer (pH 7.3) and dehydrated through a CH3OH series and embedded in JB4 glycol metacrylate. Sections (6 μm) were stained by immersion in 5% Richardson's stain for 1.5-2 min at room temperature and destained in 0.13 M sodium phosphate (pH 7.3) until the retinal layers were visible by light microscopy (about 8-15 min). For transmission electron microscopy, mouse eyecups were analyzed as described previously (Maeda, A., et al. J Blot Chem 280, 18822-18832 (2005); Maeda, T., Lem, J., Palczewski, K. & Haeseleer, F. Investigative ophthalmology & visual science 46, 4320-4327 (2005)).
# [3] = system: C57BL/6 female mice; experiment: Single flash ERG analyses after long-term treatment; type: in vivo, mouse; conditions: 14 months of age, monthly gavage ~80 mg/kg (9-cis-R-Ac: N2 and N3), vs control C2; 80 mg/kg
# From the text: To evaluate the effects of rod- and cone-mediated light responses after long-term 9-cis-R-Ac treatments, mice were examined by non-invasive ERG methods. The first set of analyses was done at 4 and 10 months of age. Under scotopic conditions, the amplitudes of a-waves decreased with age, especially at high flash intensities (C1 versus C0 group, FIG. 4A, left top panel), whereas the changes in b-waves were less evident (FIG. 4A, right top panel).
# The second set of analyses was done at 14 months of age.
# (§1) Six groups of mice were studied (FIG. 1B).
# (§2) Two weeks after the last gavage with either, 9-cis-R-Ac, all-trans-R-Ac or vehicle, groups of 48 hr dark-adapted mice were analyzed for recovery of dark adaptation after light exposure, purified rhodopsin/opsin and retinoids in the eye and retinal morphology (FIG. 1C; Methods). Mice were exposed to light of intensity 500 cd·m^−2 that bleached ˜90% of rhodopsin, anesthetized and monitored by ERG for one hr to evaluate recovery of dark adaptation. Rhodopsin was purified and rhodopsin/opsin ratios was determined. Retinoid analyses were performed on dissected eyes removed at 0, 10, 30, and 60 min after exposure to the same amount of light. Mice used to evaluate retinal morphology were not exposed to photobleaching prior to analysis.
# (§3) ERGs of anesthetized mice were recorded as previously reported.
# [4] = system: C57BL/6 female mice; experiment: Recovery of ERG response (dark adaptation) after bleach, long-term treatment; type: in vivo, mouse; conditions: 14 months of age, treated (9-cis-R-Ac: N2 and N3) vs C2; 500 cd·m^−2 for 3 min, 60 min dark adaptation
# Description: Recovery of the ERG response (dark adaptation) following bleach was measured by monitoring the amplitude of a-waves after retinal exposure to intense constant illumination (500 cd·m^−2, ˜90% bleached rhodopsin) for 3 min. […] Retinoid kinetics in the eyes of each group were quantitatively evaluated during 60 min of dark adaptation after 3 min of bleaching at four subsequent time points of dark adaptation (0, 10, 30, and 60 min). […] Neither 9-cis-retinal nor 9-cis-retinyl esters were found in eyes from untreated groups (data not shown).
# as §1, §2, §3
smiles,measurement,setting,value
CC1=C(/C=C/C(C)=C\C=C\C(C)=C\C=O)C(C)(C)CCC1 [9-cis-retinal],"retinal morphology and rod function (single cell recordings, ERG)","[1]; mouse, in vivo, po",preserved retinal morphology and recovery of normal rod function
CC1=C(/C=C/C(C)=C/C=C/C(C)=C/C=O)C(C)(C)CCC1 [11-cis-retinal],vision,"[1]; intraperitoneal injection, Rpe65−/− mice",improves vision
"CC(=O)OC/C=C(C)/C=C/C=C(C)/C=C/C1=C(C)CCCC1(C)C [all-trans-R-Ac, reference compound]",retinal abnormalities by light microscopy,[2],no major abnormalities
same,"a- and b-wave amplitudes, scotopic and photopic single flash ERG",[3],no significant difference; also recorded: no effect
same,recovery of ERG a-wave response (dark adaptation) after bleach,[4],no significant difference
